Here are results for 16 compounds from ChEMBL document CHEMBL1135631, “Design and evaluation of affinity labels of functionalized amino acid anticonvulsants” (J Med Chem, 2002).

Each structure is given as a SMILES string.

Data set [1] is described as follows: Neurologic toxicity using rotarod test in mice after intraperitoneal administration. The note with it: mouse, in vivo, ip. The data set is classed as organism-based. On the technique in general: Falling from the rotarod earlier than controls is read as motor impairment.
The subject of data set [2] is Rattus norvegicus. In words: Anticonvulsant activity using MES test in rat after oral administration. The data set is classed as functional.
Data set [3] can be described thus: Neurologic toxicity using rotarod test in rat after oral administration. The data set is classed as organism-based. The following applies: in vivo.
Data set [4] concerns Mus musculus. In words: (§1) Anticonvulsant activity using MES test in mice after intraperitoneal administration. The data set is classed as functional. The following applies: ip.
The nature of data set [5]: Protective index as the ratio of TD50 value to that of ED50 value in rat. The data set is classed as functional.
Data set [6] in a line: Protective index as the ratio of TD50 value to that of ED50 value in mice. The data set is classed as functional.
The target in data set [7] is Metabotropic glutamate receptor 1 (Rattus norvegicus) (UniProt P23385). The description is as §1. The following applies: Mus musculus; target entry is the homologue from another species. The data set is classed as functional, organism-based.
Metabotropic glutamate receptor 1 (Rattus norvegicus), sequence (P23385 19-1199 limits assumed): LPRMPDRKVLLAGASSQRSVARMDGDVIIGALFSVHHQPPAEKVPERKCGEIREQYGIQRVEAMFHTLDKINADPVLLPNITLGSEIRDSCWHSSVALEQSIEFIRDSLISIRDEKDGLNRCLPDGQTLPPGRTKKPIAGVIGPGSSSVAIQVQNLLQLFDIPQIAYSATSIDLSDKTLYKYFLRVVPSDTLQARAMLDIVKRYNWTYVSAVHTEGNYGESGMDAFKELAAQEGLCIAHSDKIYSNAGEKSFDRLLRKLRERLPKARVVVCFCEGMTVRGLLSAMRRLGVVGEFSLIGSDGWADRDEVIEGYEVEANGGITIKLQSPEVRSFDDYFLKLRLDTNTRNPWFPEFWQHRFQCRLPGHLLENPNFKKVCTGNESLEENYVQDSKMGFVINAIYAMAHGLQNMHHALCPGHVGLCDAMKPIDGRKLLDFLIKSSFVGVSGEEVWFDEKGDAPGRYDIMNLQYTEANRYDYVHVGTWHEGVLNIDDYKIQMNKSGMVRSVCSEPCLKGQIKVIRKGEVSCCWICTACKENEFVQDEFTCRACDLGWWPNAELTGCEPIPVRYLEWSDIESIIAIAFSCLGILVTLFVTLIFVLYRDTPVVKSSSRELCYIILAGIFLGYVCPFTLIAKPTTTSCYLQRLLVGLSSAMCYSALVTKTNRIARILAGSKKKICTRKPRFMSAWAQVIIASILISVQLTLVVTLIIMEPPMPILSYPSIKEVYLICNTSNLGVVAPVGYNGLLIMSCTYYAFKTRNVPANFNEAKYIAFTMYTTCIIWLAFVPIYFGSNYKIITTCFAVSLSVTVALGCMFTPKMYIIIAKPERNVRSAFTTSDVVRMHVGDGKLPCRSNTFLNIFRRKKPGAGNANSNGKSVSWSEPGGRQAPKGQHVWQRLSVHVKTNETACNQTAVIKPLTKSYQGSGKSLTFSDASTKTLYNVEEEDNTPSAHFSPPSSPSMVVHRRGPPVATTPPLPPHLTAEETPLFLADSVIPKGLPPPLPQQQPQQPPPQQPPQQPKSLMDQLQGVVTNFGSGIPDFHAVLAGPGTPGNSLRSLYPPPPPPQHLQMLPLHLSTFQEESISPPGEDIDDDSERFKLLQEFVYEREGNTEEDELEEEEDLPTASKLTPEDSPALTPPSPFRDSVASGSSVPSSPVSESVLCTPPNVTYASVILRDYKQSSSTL

Broadly, the TD50 is the 50% point of the dose-response relation for the toxic effect studied. A low value points to harm at a small dose. The term ED50 denotes the midpoint of the dose-response relation. Low values mean greater potency, high ones weaker potency. On to `COC[C@H](NC(C)=O)C(=O)NCc1ccccc1`, for which the TD50 was over 300 mg/kg in data set [1] and over 30 mg/kg in data set [3]. The ED50 in data set [2] was over 30 mg/kg.
Turning to `COC[C@H](NC(C)=O)C(=O)NCc1cccc(N=C=S)c1`, the TD50 in data set [1] is over 100 mg/kg; in data set [3] it was over 150 mg/kg. Moreover, the values for the ED50 in data set [2] and in data set [4] were over 150 mg/kg and over 100 mg/kg, respectively.
In the case of `COC[C@@H](NC(C)=O)C(=O)NCc1ccccc1` [LACOSAMIDE], the PI is over 128 in data set [5] and 6 in data set [6]. Also, in data set [3], the TD50 is over 500 mg/kg.
Consider `CCOCC(NC(C)=O)C(=O)NCc1ccccc1` (racemic), for which, in data set [4], the ED50 came to 17 mg/kg.
On to `COCC(NC(C)=O)C(=O)NCc1ccccc1` (racemic), for which the PI in data set [5] was 101; in data set [6], 5.2. Also, the TD50 in data set [3] amounted to 37 mg/kg.
For the compound `CC(=O)NC(CCCCN=C=S)C(=O)NCc1ccccc1` (racemic), the TD50 in data set [1] and in data set [3] was over 30 mg/kg throughout. Further, the ED50 in data set [2] and in data set [4] was over 30 mg/kg each time.
For the compound `COC[C@@H](NC(C)=O)C(=O)NCc1cccc(N=C=S)c1`, the figures for the 50% effective dose (ED50) in data set [7] and in data set [2] were 74 mg/kg and 28 mg/kg, respectively. In addition, the TD50 in data set [1] was 120 mg/kg; in data set [3] it was over 250 mg/kg. Besides, the PI in data set [5] is over 9; in data set [6], 1.6.
Take `COC[C@@H](NC(C)=O)C(=O)NCc1ccc(N=C=S)cc1`: the results for the TD50 in data set [1] and in data set [3] were 47 mg/kg and over 250 mg/kg, respectively. Moreover, the median effective dose (ED50) in data set [2] was 4.2 mg/kg; in data set [4], 24 mg/kg. Also, the PI was over 59 in data set [5] and 2 in data set [6].
Take `CCCC(CCC)C(=O)O` [VALPROIC ACID]: in data set [4], it took a dose of 270 mg/kg to reach the 50% effect level (ED50).
The compound `O=C1NC(=O)C(c2ccccc2)(c2ccccc2)N1` [PHENYTOIN] registered a 50% effective dose (ED50) in data set [2] of 30 mg/kg.
`COC[C@@H](NC(=O)CBr)C(=O)NCc1ccccc1` showed a TD50 in data set [1] of over 30 mg/kg. The compound further yielded an ED50 in data set [4] of over 300 mg/kg.
For the compound `COC[C@H](NC(C)=O)C(=O)NCc1ccc(N=C=S)cc1`, the TD50 in data set [1] and in data set [3] was over 30 mg/kg in each case. Also, the ED50 in data set [2] was over 180 mg/kg; in data set [4], over 100 mg/kg.
For `CCCC(NC(C)=O)C(=O)NCc1ccccc1` (racemic), the TD50 is 160 mg/kg in data set [1] and over 30 mg/kg in data set [3]. Besides, the ED50 came to 30 mg/kg in data set [2] and 38 mg/kg in data set [4]. Moreover, the values for the PI in data set [5] and in data set [6] were over 30 and 4.2, respectively.
On to `C=CC(=O)NC(COC)C(=O)NCc1ccccc1` (racemic), for which the figures for the TD50 in data set [1] and in data set [3] were over 300 mg/kg and over 30 mg/kg, respectively. Also, the ED50 in data set [2] is over 30 mg/kg; in data set [4] it was over 100 mg/kg.
As to `CCC1(c2ccccc2)C(=O)NC(=O)NC1=O` [PHENOBARBITAL], the ED50 in data set [2] is 9.1 mg/kg; in data set [4], 22 mg/kg.
As to `COC[C@H](NC(=O)CBr)C(=O)NCc1ccccc1`, the TD50 in data set [1] was over 30 mg/kg. The compound also returned an ED50 in data set [4] of over 30 mg/kg.
